Laboratory results taken from patent publication EP4470536A1, “COMPOUND FOR USE IN TREATING FIBRODYSPLASIA OSSIFICANS PROGRESSIVA (FOP)” (Queen's University At Kingston, priority 2023, dated 2024).
pIC50: −log10 of the molar value.

Tests used:
CYP26A1 = biological target: T1, CYP26A1 (Homo sapiens, UniProt O43174); assay: HeLa cell-based inhibitor assay (HeLa-CYP26A1), inhibition of all trans-RA metabolism; settings: CYP26A1 cells, highest concentration tested (10 µM), Figure 2, read-out: percentage inhibition
T1 construct: expressed in transfected cells; host or cells: HeLa (stably transfected, hygromycin selection)
T1 sequence (O43174 1-497): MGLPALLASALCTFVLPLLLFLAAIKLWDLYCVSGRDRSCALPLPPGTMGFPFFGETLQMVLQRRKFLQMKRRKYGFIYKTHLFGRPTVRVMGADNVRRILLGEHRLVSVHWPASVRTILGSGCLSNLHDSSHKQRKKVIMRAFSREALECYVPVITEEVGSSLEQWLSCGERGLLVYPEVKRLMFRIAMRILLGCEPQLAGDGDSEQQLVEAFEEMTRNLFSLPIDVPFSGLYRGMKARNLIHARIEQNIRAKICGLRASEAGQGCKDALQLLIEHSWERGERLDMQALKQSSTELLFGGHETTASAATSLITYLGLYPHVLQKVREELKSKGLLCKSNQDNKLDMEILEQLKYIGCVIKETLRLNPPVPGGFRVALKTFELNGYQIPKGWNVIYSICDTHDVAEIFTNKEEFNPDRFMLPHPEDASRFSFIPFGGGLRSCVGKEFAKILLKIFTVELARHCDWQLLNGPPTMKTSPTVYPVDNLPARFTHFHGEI
Method: (§1) CYP26A1 or CYP26B1 cDNA stably transfected HeLa cells were maintained in Minimum Essential Medium (MEM) containing 10% fetal bovine serum (FBS), 1X antibiotic/antimycotic cocktail, and […] hygromycin. Exponentially growing cells were harvested by incubation in trypsin. Cells were then collected and re-plated in 48-well culture plates at 1.5×10^5 (CYP26A1) or 1.5×10^4 (CYP26B1) cells in 0.2 mL of culture medium containing 0.04µCi [^3H]-RA (retinoic acid) in the presence or absence of increasing concentrations of a test compound. The test compound was diluted in dimethyl sulfoxide (DMSO) and then added in duplicate to wells to 0.01 nM, 0.1 nM, 1 nM, 10 nM, 100 nM, 1 µM, and 10 µM final concentrations. Cells were incubated for 3 hours at 37 °C. Retinoids were then extracted using the procedure of Bligh, et al., (1959), Canadian Journal of Biochemistry 37, 911-917, which was modified by using dichloromethane instead of chloroform. Each sample's water-soluble radioactivity level was quantified using a β-scintillation counter (using Ecolume scintillation fluid, available from MP Biomedicals of Solon, OH, USA). IC50 values represented the concentration of inhibitor required to inhibit all trans-RA metabolism by 50%, and were derived from log transformed data.

CYP26B1 = biological target: T2, CYP26B1 (Homo sapiens, UniProt Q9NR63); assay: HeLa cell-based inhibitor assay (HeLa-CYP26B1), inhibition of all trans-RA metabolism; settings: CYP26B1 cells; [3H]-RA, 3 hours at 37 °C; Figure 1
T2 sequence (Q9NR63 1-512): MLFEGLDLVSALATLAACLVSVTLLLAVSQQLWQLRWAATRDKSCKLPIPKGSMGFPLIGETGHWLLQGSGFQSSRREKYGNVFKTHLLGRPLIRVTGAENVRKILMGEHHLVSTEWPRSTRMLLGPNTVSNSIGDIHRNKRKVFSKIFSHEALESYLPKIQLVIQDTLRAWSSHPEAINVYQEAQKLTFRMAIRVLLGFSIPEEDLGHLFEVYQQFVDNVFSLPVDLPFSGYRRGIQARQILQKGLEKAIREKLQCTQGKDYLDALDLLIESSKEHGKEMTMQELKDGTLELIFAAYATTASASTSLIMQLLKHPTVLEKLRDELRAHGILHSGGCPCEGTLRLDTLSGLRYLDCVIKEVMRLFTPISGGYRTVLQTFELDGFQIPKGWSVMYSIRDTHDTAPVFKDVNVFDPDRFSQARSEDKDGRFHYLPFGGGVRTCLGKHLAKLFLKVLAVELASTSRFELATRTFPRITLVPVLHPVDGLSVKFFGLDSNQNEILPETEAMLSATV
Method: as §1

RAR = RAR transcriptional activation assay (RARE-luc MCF-7 cells); format: cell-based; settings: 0.1 nM to 10 µM, 24 hours of treatment; Figure 5
From the text: This retinoid transcriptional activity assay measures the ability of a test compound to induce expression of a RA-sensitive reporter construct. This assay utilizes MCF-7 cells stably transduced with a gene construct comprising 4 tandem RA-response elements linked to a promoter driving transcriptional expression of the firefly luciferase encoding mRNA (RARE-luc). This construct serves as a sensitive reporter of retinoid-like activity.
RARE-luc transduced MCF-7 cells were maintained in a RPMI-1640 medium containing 10% FBS. Cells were grown in 96-well plates, and treated with the test compound diluted in DMSO in duplicate at 0.1 nM, 1 nM, 10 nM, 100 nM, 1 µM and 10 µM final concentrations. As a positive control for reporter activation, cells were also treated with RA diluted in DMSO at the same concentrations. DMSO treatment alone served as a negative control. After 24 hours of treatment, cells were harvested lysis buffer (Molecular Devices, San Jose, USA) and luciferase activity in cell lysates were read using a luminometer.

With `CC(C)(C)c1cccc(-c2cc3cc(/C=C/C(=O)O)ccc3[nH]2)c1` [Compound 1, (E)-3-(2-(3-(tert-butyl)phenyl)-1H-indol-5-yl)acrylic acid] the inhibition at 10 µM (CYP26A1) was 33%, the pIC50 (CYP26B1) was 7.90 and the luciferase activity (RAR) was “did not induce luciferase activity significantly”.
